From ChEMBL document CHEMBL3044780, “Simple and Rapid Screening Method for Photosystem II Inhibitory Herbicides Using Photoautotrophically Cultured Plant Cells with Chlorophyll Fluorescence Monitoring” (Biosci Biotechnol Biochem, 1993)

Key:
[1] = tested on: Vigna radiata var. radiata; test: Herbicidal activity against Vigna radiata var. radiata assessed per 100 m'2 after 10 days by greenhouse pot test; type: functional
[2] = Lipophilicity, log P of the compound; type: physicochemical; details: octanol/water

| Compound | pLD50 [1] | logP [2] |
| --- | --- | --- |
| CN(C)C(=O)Nc1ccc(C#N)cc1 | 0.63 | 0.97 |
| CN(C)C(=O)Nc1ccc(I)cc1 | 1.75 | 2.36 |
| CN(C)C(=O)Nc1ccc(Br)cc1 | 1.86 | 2.07 |
| CN(C)C(=O)Nc1ccc(O)cc1 | <0.4 | 0.37 |
| CN(C)C(=O)Nc1cccc(F)c1 | 1.76 | 1.37 |
| CN(C)C(=O)Nc1cccc(Cl)c1 | 2.16 | 2.33 |
| COc1cccc(NC(=O)N(C)C)c1 | 1.15 | 1.22 |
| CN(C)C(=O)Nc1cccc([N+](=O)[O-])c1 | <0.4 | 1.33 |
| CN(C)C(=O)Nc1cccc(C#N)c1 | <0.4 | 0.98 |
| CN(C)C(=O)Nc1cccc(O)c1 | <0.4 |  |
| CN(C)C(=O)Nc1ccc(F)cc1 | 1.67 | 1.13 |
| Cc1ccc(NC(=O)N(C)C)cc1 | 1.21 | 1.41 |
| COc1ccc(NC(=O)N(C)C)cc1 | 1.61 | 1.02 |
| CN(C)C(=O)Nc1ccc(C(F)(F)F)cc1 | 1.45 | 2.31 |
| CN(C)C(=O)Nc1ccc([N+](=O)[O-])cc1 | <0.4 | 1.43 |
| Cc1cccc(NC(=O)N(C)C)c1 |  | 1.46 |
| CN(C)C(=O)Nc1ccc(Cl)c(Cl)c1 [DCMU] | 2.75 |  |
| CN(C)C(=O)Nc1ccccc1 [FENURON] | 1.54 |  |
| CN(C)C(=O)Nc1cccc(C(F)(F)F)c1 [FLUOMETURON] | 1.3 | 2.2 |
| CC(C)c1ccc(NC(=O)N(C)C)cc1 [ISOPROTURON] | 1.92 | 2.87 |
| CN(C)C(=O)Nc1ccc(Cl)cc1 [MONURON] | 2.01 | 1.99 |
